From ChEMBL document CHEMBL4507262, “Data for DCP probe A-1596586” (2021)

What was measured:
[1] = biological target: Adenosine receptor A1 (Homo sapiens) (UniProt P30542); assay: A1 (h) Eurofins-Cerep binding assay; design: ligand concentration 1 nM; conditions: filed as antagonist, Compound concentration 10.0 uM
[2] = biological target: Beta-2 adrenergic receptor (Homo sapiens) (UniProt P07550); assay: Beta2 (h) Eurofins-Cerep binding assay; design: ligand concentration 0.3 nM; conditions: filed as antagonist, Compound concentration 10.0 uM
[3] = biological target: Substance-P receptor (Homo sapiens) (UniProt P25103); assay: NK1 (h) Eurofins-Cerep binding assay; design: ligand concentration 0.05 nM; conditions: filed as agonist, Compound concentration 10.0 uM
[4] = biological target: 5-hydroxytryptamine receptor 7 (Homo sapiens) (UniProt P34969); assay: 5-HT7 (h) Eurofins-Cerep binding assay; design: ligand concentration 4 nM; conditions: filed as agonist, Compound concentration 10.0 uM
[5] = biological target: GABA-A receptor; anion channel (Rattus norvegicus) (UniProt O09028+P15431+P18506+P18508+P19969+P20236+P23574+P23576+P28471+P28473+P30191+P62813+P63079+P63138+Q91ZM7+Q9ES14); assay: Cl- channel (GABA-gated) Eurofins-Cerep binding assay; format: protein-complex assay; design: ligand concentration 3 nM; conditions: filed as antagonist, Compound concentration 10.0 uM
[6] = biological target: Sodium- and chloride-dependent GABA transporter 1 (Rattus norvegicus) (UniProt P23978); assay: GABA transporter Eurofins-Cerep binding assay; design: ligand concentration 10 nM; conditions: filed as antagonist, Compound concentration 10.0 uM
[7] = tested on: Tyrosine-protein kinase ABL1 (Homo sapiens), P00519 [M351T]; conditions: Compound concentration 1000.0 nM
[8] = biological target: Serine/threonine-protein kinase B-raf (Homo sapiens) (UniProt P15056); conditions: Compound concentration 1000.0 nM
[9] = biological target: Calcium/calmodulin-dependent protein kinase type 1 (Homo sapiens) (UniProt Q14012); conditions: Compound concentration 1000.0 nM
[10] = biological target: Cyclin-dependent kinase-like 2 (Homo sapiens) (UniProt Q92772); conditions: Compound concentration 1000.0 nM
[11] = biological target: Casein kinase I isoform delta (Homo sapiens) (UniProt P48730); conditions: Compound concentration 1000.0 nM
[12] = biological target: Death-associated protein kinase 2 (Homo sapiens) (UniProt Q9UIK4); conditions: Compound concentration 1000.0 nM
[13] = biological target: Death-associated protein kinase 3 (Homo sapiens) (UniProt O43293); conditions: Compound concentration 1000.0 nM
[14] = biological target: Dual specificity tyrosine-phosphorylation-regulated kinase 2 (Homo sapiens) (UniProt Q92630); conditions: Compound concentration 1000.0 nM
[15] = tested on: Epidermal growth factor receptor (Homo sapiens), P00533 [L858R]; conditions: Compound concentration 1000.0 nM
[16] = biological target: Ephrin type-B receptor 3 (Homo sapiens) (UniProt P54753); conditions: Compound concentration 1000.0 nM
[17] = biological target: Tyrosine-protein kinase Fer (Homo sapiens) (UniProt P16591); conditions: Compound concentration 1000.0 nM
[18] = tested on: Receptor-type tyrosine-protein kinase FLT3 (Homo sapiens), P36888 [UNDEFINED MUTATION]; conditions: Compound concentration 1000.0 nM
[19] = tested on: Receptor-type tyrosine-protein kinase FLT3 (Homo sapiens), P36888 [K663Q]; conditions: Compound concentration 1000.0 nM
[20] = biological target: Receptor-type tyrosine-protein kinase FLT3 (Homo sapiens) (UniProt P36888); conditions: Compound concentration 1000.0 nM
[21] = biological target: Interleukin-1 receptor-associated kinase 3 (Homo sapiens) (UniProt Q9Y616); conditions: Compound concentration 1000.0 nM
[22] = biological target: Tyrosine-protein kinase ITK/TSK (Homo sapiens) (UniProt Q08881); conditions: Compound concentration 1000.0 nM
[23] = biological target: Tyrosine-protein kinase JAK1 (Homo sapiens) (UniProt P23458); conditions: Compound concentration 1000.0 nM
[24] = biological target: Mast/stem cell growth factor receptor Kit (Homo sapiens) (UniProt P10721); conditions: Compound concentration 1000.0 nM
[25] = biological target: Serine/threonine-protein kinase 10 (Homo sapiens) (UniProt O94804); conditions: Compound concentration 1000.0 nM
[26] = biological target: Tyrosine-protein kinase Lyn (Homo sapiens) (UniProt P07948); conditions: Compound concentration 1000.0 nM
[27] = biological target: Serine/threonine-protein kinase MAK (Homo sapiens) (UniProt P20794); conditions: Compound concentration 1000.0 nM
[28] = biological target: MAP kinase-activated protein kinase 2 (Homo sapiens) (UniProt P49137); conditions: Compound concentration 1000.0 nM
[29] = biological target: Serine/threonine-protein kinase MARK2 (Homo sapiens) (UniProt Q7KZI7); conditions: Compound concentration 1000.0 nM
[30] = biological target: Dual specificity mitogen-activated protein kinase kinase 3 (Homo sapiens) (UniProt P46734); conditions: Compound concentration 1000.0 nM
[31] = biological target: Hepatocyte growth factor receptor (Homo sapiens) (UniProt P08581); conditions: Compound concentration 1000.0 nM
[32] = biological target: Serine/threonine-protein kinase 38 (Homo sapiens) (UniProt Q15208); conditions: Compound concentration 1000.0 nM
[33] = biological target: Serine/threonine-protein kinase Nek3 (Homo sapiens) (UniProt P51956); conditions: Compound concentration 1000.0 nM
[34] = biological target: Serine/threonine-protein kinase Nek7 (Homo sapiens) (UniProt Q8TDX7); conditions: Compound concentration 1000.0 nM
[35] = biological target: Serine/threonine-protein kinase PAK 2 (Homo sapiens) (UniProt Q13177); conditions: Compound concentration 1000.0 nM
[36] = biological target: Serine/threonine-protein kinase PAK 3 (Homo sapiens) (UniProt O75914); conditions: Compound concentration 1000.0 nM
[37] = biological target: 3-phosphoinositide-dependent protein kinase 1 (Homo sapiens) (UniProt O15530); conditions: Compound concentration 1000.0 nM
[38] = biological target: Phosphatidylinositol 5-phosphate 4-kinase type-2 beta (Homo sapiens) (UniProt P78356); conditions: Compound concentration 1000.0 nM
[39] = biological target: Receptor-interacting serine/threonine-protein kinase 2 (Homo sapiens) (UniProt O43353); conditions: Compound concentration 1000.0 nM
[40] = biological target: Ribosomal protein S6 kinase alpha-6 (Homo sapiens) (UniProt Q9UK32); conditions: Compound concentration 1000.0 nM
[41] = biological target: Serine/threonine-protein kinase TAO1 (Homo sapiens) (UniProt Q7L7X3); conditions: Compound concentration 1000.0 nM
[42] = biological target: Serine/threonine-protein kinase 32A (Homo sapiens) (UniProt Q8WU08); conditions: Compound concentration 1000.0 nM
[43] = biological target: Sigma intracellular receptor 2 (Homo sapiens, UniProt Q5BJF2); conditions: Compound concentration 10.0 uM

Ephrin type-B receptor 3 (Homo sapiens), sequence (P54753 whole entry): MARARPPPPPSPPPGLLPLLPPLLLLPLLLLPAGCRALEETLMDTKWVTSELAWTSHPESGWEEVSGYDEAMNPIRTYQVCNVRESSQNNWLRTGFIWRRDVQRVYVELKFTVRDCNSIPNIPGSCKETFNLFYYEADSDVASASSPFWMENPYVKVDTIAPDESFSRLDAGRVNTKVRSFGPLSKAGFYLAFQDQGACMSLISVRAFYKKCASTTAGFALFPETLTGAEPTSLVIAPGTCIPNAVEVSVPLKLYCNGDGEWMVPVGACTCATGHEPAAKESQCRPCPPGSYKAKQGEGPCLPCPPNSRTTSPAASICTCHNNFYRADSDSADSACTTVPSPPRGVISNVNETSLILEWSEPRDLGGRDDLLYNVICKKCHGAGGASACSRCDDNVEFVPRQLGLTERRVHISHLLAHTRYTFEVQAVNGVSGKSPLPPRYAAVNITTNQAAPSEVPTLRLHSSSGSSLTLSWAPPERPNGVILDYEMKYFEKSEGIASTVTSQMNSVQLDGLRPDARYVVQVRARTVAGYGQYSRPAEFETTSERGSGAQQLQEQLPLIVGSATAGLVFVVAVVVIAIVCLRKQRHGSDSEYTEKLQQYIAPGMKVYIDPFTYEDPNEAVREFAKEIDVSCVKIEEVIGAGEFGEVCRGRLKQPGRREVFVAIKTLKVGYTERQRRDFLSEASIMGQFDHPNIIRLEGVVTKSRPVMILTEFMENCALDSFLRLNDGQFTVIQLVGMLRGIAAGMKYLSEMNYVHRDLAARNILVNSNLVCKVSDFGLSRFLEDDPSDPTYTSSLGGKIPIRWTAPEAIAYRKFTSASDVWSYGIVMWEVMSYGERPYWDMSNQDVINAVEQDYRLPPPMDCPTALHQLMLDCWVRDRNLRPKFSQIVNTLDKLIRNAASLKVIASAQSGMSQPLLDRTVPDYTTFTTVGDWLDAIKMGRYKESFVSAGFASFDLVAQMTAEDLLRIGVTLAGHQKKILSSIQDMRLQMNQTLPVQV
Serine/threonine-protein kinase 32A (Homo sapiens), sequence (Q8WU08 whole entry): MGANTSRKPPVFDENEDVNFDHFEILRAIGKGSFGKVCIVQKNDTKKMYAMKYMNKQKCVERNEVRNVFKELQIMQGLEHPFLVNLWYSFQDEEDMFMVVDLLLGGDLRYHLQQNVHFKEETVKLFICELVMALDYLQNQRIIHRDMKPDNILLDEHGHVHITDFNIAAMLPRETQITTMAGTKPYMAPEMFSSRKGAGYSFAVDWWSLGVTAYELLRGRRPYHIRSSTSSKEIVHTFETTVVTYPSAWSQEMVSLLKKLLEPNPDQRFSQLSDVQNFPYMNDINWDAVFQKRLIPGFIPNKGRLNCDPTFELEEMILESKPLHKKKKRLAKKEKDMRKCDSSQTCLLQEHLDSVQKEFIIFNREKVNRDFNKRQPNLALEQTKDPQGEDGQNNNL
Receptor-interacting serine/threonine-protein kinase 2 (Homo sapiens), sequence (O43353 whole entry): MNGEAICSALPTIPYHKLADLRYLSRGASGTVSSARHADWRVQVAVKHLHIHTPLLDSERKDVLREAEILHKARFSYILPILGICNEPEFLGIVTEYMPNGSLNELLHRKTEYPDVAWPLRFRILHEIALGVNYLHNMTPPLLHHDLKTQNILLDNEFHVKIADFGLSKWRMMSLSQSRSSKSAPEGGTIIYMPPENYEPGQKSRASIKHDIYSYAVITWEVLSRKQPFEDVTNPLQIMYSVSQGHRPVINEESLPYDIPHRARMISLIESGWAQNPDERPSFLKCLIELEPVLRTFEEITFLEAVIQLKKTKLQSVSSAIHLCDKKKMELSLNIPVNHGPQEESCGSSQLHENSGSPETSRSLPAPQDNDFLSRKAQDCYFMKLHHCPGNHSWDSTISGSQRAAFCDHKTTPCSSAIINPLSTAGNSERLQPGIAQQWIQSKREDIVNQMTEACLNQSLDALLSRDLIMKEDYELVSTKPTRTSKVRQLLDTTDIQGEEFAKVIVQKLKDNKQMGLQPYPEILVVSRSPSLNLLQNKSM
Tyrosine-protein kinase Lyn (Homo sapiens), sequence (P07948 2-512 limits assumed): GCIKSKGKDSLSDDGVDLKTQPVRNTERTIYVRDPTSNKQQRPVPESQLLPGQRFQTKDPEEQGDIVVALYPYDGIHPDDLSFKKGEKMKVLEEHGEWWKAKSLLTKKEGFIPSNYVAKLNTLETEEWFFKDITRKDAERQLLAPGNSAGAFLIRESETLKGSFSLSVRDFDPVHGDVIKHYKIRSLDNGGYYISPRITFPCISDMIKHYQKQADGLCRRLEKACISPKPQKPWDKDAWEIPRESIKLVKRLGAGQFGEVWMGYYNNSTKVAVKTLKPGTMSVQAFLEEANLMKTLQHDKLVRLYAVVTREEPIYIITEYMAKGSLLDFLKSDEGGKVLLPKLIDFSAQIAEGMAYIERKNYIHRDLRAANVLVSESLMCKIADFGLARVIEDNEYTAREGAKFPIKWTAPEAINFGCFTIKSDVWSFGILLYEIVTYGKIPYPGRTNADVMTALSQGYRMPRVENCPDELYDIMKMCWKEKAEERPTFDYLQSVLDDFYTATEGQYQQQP
Substance-P receptor (Homo sapiens), sequence (P25103 whole entry): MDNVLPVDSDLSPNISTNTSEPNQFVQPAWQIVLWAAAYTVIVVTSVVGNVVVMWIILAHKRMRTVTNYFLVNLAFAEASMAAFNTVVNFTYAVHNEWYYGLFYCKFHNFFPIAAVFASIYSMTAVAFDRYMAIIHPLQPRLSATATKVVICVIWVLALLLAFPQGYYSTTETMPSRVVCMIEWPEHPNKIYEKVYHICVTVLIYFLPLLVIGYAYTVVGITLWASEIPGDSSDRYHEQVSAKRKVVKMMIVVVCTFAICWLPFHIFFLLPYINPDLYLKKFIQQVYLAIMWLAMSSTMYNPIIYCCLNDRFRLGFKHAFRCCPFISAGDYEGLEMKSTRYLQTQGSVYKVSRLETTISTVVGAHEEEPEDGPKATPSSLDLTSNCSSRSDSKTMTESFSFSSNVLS
Tyrosine-protein kinase JAK1 (Homo sapiens), sequence (P23458 whole entry): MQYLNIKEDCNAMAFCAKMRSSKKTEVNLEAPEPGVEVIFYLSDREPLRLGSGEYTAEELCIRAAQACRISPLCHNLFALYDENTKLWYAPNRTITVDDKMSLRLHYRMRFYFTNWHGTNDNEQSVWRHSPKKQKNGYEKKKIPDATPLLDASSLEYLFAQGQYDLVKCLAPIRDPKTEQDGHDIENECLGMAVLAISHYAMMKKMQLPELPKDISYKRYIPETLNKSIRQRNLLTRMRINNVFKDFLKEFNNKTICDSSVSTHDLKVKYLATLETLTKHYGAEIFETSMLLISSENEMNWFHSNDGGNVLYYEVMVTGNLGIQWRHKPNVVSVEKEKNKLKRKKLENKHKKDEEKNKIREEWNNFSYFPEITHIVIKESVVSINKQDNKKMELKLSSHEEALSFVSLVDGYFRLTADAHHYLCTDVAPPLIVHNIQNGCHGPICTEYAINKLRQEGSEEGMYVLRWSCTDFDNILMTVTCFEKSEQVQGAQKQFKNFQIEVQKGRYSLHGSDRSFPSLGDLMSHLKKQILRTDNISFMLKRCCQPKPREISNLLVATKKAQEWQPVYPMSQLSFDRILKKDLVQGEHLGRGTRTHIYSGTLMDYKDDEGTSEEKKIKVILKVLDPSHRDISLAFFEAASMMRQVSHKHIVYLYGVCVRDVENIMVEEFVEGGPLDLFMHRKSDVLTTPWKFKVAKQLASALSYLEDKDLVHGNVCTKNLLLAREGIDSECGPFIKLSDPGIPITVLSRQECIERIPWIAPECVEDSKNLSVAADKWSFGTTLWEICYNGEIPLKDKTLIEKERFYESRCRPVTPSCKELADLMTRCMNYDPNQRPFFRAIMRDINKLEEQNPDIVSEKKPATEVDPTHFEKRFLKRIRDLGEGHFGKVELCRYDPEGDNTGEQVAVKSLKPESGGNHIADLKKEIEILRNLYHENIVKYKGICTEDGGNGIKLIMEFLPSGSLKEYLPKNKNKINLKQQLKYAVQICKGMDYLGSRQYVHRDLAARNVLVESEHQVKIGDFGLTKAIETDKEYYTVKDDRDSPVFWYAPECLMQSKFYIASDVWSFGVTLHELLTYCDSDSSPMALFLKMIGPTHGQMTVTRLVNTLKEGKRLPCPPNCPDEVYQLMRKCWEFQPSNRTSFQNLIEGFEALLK
3-phosphoinositide-dependent protein kinase 1 (Homo sapiens), sequence (O15530 whole entry): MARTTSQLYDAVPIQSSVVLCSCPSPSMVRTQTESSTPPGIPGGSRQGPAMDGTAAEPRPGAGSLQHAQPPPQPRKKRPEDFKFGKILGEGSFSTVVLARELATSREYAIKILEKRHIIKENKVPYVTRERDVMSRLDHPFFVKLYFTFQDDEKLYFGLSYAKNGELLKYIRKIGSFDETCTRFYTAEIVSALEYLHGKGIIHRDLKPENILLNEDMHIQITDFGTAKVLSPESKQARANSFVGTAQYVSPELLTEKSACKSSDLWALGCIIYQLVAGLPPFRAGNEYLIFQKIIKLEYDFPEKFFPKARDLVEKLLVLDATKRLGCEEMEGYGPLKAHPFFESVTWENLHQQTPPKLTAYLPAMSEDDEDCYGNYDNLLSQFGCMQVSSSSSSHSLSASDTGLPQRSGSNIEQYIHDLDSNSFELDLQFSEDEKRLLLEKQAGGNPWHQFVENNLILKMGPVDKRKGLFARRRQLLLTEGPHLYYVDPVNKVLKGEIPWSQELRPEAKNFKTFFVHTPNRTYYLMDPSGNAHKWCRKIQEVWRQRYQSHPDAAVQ
Phosphatidylinositol 5-phosphate 4-kinase type-2 beta (Homo sapiens), sequence (P78356 whole entry): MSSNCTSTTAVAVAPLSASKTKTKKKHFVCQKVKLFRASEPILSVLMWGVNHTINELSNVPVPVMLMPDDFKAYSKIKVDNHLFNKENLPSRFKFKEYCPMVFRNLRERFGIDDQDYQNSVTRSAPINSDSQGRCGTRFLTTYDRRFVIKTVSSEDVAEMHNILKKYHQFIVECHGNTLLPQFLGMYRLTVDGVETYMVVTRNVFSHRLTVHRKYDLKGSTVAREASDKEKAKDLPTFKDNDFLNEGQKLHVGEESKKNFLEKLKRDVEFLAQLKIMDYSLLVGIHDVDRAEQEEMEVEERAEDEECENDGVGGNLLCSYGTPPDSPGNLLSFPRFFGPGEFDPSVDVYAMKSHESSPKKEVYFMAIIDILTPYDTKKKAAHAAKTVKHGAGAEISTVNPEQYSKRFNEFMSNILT

COc1ccc2c(c1)O[C@H](c1ccc(OC)c(OC)c1)C[C@@H]2NC(=O)C1(c2ccc3c(c2)OC(F)(F)O3)CC1 [A-1596584]
82.4%: % Inhibition of Control Specific Binding (Mean n=2) [5]
active: inhibition [43] 85.3%
inactive: residual activity [7] 88% | residual activity [8] 92% | residual activity [9] 100% | residual activity [10] 100% | residual activity [11] 92% | residual activity [12] 98% | residual activity [13] 95% | residual activity [14] 100% | residual activity [15] 100% | residual activity [16] 91% | residual activity [17] 100% | residual activity [18] 100% | residual activity [19] 100% | residual activity [20] 83% | residual activity [21] 86% | residual activity [22] 100% | residual activity [23] 100% | residual activity [24] 100% | residual activity [25] 100% | residual activity [26] 88% | residual activity [27] 95% | residual activity [28] 100% | residual activity [29] 100% | residual activity [30] 100% | residual activity [31] 87% | residual activity [32] 100% | residual activity [33] 90% | residual activity [34] 100% | residual activity [35] 100% | residual activity [36] 100% | residual activity [37] 100% | residual activity [38] 80% | residual activity [39] 100% | residual activity [40] 87% | residual activity [41] 100% | residual activity [42] 100%
11.6%: % Inhibition of Control Specific Binding (Mean n=2) [2]
11.5%: % Inhibition of Control Specific Binding (Mean n=2) [1]
-6.4%: % Inhibition of Control Specific Binding (Mean n=2) [4]
-15.1%: % Inhibition of Control Specific Binding (Mean n=2) [6]
92.1%: % Inhibition of Control Specific Binding (Mean n=2) [3]

COc1ccc2c(c1)O[C@@H](c1ccc(OC)c(OC)c1)C[C@H]2NC(=O)C1(c2ccc3c(c2)OC(F)(F)O3)CC1 [A-1596586]
57.7%: % Inhibition of Control Specific Binding (Mean n=2) [5]
7%: % Inhibition of Control Specific Binding (Mean n=2) [2]
44.4%: % Inhibition of Control Specific Binding (Mean n=2) [3]
-17.9%: % Inhibition of Control Specific Binding (Mean n=2) [6]
14.3%: % Inhibition of Control Specific Binding (Mean n=2) [1]
inactive: residual activity [7] 78% | residual activity [8] 100% | residual activity [9] 100% | residual activity [10] 100% | residual activity [11] 100% | residual activity [12] 98% | residual activity [13] 93% | residual activity [14] 75% | residual activity [15] 97% | residual activity [16] 90% | residual activity [17] 100% | residual activity [18] 100% | residual activity [19] 100% | residual activity [20] 80% | residual activity [21] 85% | residual activity [22] 86% | residual activity [23] 90% | residual activity [24] 86% | residual activity [25] 88% | residual activity [26] 100% | residual activity [27] 93% | residual activity [28] 100% | residual activity [29] 92% | residual activity [30] 78% | residual activity [31] 100% | residual activity [32] 91% | residual activity [33] 76% | residual activity [34] 100% | residual activity [35] 100% | residual activity [36] 87% | residual activity [37] 100% | residual activity [38] 100% | residual activity [39] 94% | residual activity [40] 84% | residual activity [41] 93% | residual activity [42] 100%
active: inhibition [43] 85.8%
-6.3%: % Inhibition of Control Specific Binding (Mean n=2) [4]
